Test [1] relates to PEER. In words: Cell proliferation assay, PEER (ALL). It counts as cell-based. As to conditions: 48 hours. As to the method:
Cell proliferation was analyzed after 48 hours of in vitro treatment using the CellTiter 96 Aqueous One Solution Cell Proliferation Assay (Promega, Madison, Wis.). This is a colorimetric method for determining the number of viable cells in proliferation.
For the assay, suspension cells were cultured by triplicate at a density of 1×10^6 cells/ml in 96-well plates (100.000 cells/well, 100 μl/well), except for OCILY-3 and OCILY-10 cell lines which were cultured at a density of 0.5×10^6 cells/ml (50.000 cells/well, 100 μl/well) and for HepG2, Hep3B and PLC/PRF/5 cell ines which were cultured at a density of 3000 cells/well, 100 μl/well). Adherent cells were obtained from 80-90% confluent flasks and 100 μl of cells were seeded at a density of 5000 cells/well in 96-well plates by triplicate. Before addition of the compounds, adherent cells were allowed to attach to the bottom of the wells for 12 hours. […]
After 48 hours of treatment, plates with suspension cells were centrifuged at 800 g for 10 minutes and medium was removed. […] After 1-3 hours of incubation at 37° C., absorbance was measured at 490 nm in a 96-well plate reader. The background absorbance was measured in wells with only cell line medium and solution reagent. Data was calculated as a percentage of total absorbance of treated cell/absorbance of non treated cells. […]

In test [2] the test system is human B-ALL mice model with CEMO-1 cell line. In words: In vivo therapeutic activity in the preclinical human B-ALL mice model with CEMO-1 cell line. Details: species or system BALB/cA-Rag2−/−γc−/− mice. As to the method: To examine the in vivo activity, a preclinical model of human B-ALL with RAG2 mouse was used. Six to eight-week old female BALB/cA-Rag2^−/−γc^−/− mice were purchased from The Netherlands Cancer Institute and maintained in pathogen-free isolation cages. RAG2 mice were injected intravenously (i.v.) with 10×10^6 CEMO-1 cells via tail vein to generate the human B-ALL mice model. Animals in groups of six were treated starting at day three after cells inoculation. The first group served as control and received placebo (saline) daily for 28 consecutive days, via i.v. injection.
The second group was treated with 3-04 (2.5 mg/kg) daily for 28 consecutive days via i.v. Animals were monitored weekly for weight loss and signs of tumour burden by flow cytometry of human cells. The median survival for 3-04 treated mice (N=6) was 91 days (SD: ±5.72) compared to 57 days (SD: ±10.52) for control mice (N=6) after cells inoculation.

Regarding `COc1cc2c(NC3CCN(C)CC3)cc(-c3ccc(C)o3)nc2cc1OCCCN1CCCC1.O=C(O)C(F)(F)F` [Compound 3-04, 6-methoxy-2-(5-methyl-2-furyl)-N-(1-methyl-4-piperidyl)-7-(3-pyrrolidin-1-ylpropoxy)quinolin-4-amine; 2,2,2-trifluoroacetic acid], the GI50 (commonly the concentration that inhibits growth by half) in test [1] was 0.1 to 1 µM. In addition, the median survival in test [2] (2.5 mg/kg daily for 28 consecutive days i.v., after cells inoculation, control 57 days) is given as 91 days. Moreover, in test [2] (2.5 mg/kg daily for 28 days i.v., P=0.0009), the “survival compared with the control (Kaplan-Meier, log-rank test)” value was “significantly prolonged survival”.
